Results taken from ChEMBL document CHEMBL3421549, “2-Aryl-3-methyloctahydrophenanthrene-2,3,7-triols as potent dissociated glucocorticoid receptor agonists” (J Med Chem, 2015).

Columns and labels:
Glucocorticoid receptor [1] = target: T1, Glucocorticoid receptor (Homo sapiens, UniProt P04150)
T1 sequence (P04150 whole entry): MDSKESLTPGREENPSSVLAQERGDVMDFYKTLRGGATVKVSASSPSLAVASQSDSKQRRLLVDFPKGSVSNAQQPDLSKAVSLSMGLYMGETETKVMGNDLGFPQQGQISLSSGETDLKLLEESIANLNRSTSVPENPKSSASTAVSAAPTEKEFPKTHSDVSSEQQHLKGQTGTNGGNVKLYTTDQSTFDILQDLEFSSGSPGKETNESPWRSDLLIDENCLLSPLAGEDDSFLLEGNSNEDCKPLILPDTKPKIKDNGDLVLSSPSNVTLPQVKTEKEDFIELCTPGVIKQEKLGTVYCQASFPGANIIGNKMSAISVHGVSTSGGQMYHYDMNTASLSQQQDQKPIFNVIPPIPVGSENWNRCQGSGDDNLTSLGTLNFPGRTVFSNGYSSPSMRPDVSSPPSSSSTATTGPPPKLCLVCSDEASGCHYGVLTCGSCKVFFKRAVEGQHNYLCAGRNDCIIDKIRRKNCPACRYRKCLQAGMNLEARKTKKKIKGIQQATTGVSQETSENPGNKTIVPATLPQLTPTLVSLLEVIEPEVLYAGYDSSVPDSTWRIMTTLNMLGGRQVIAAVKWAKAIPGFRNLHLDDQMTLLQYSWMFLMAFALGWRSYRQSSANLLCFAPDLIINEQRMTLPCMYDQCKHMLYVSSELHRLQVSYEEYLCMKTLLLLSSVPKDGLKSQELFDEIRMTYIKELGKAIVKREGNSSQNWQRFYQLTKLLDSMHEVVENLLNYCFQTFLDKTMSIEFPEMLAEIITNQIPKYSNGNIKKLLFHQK
Description: Binding affinity to human GR

Glucocorticoid receptor [2] = target: T1, Glucocorticoid receptor; experiment: Transrepression activity at glucocorticoid receptor in human SW1353 cells assessed as repression of IL-1-induced MMP-13 production after 24 hrs by ELISA; format: cell-based
Glucocorticoid receptor [3] = target: T1, Glucocorticoid receptor; remark: listed apart in the source
Description: Transrepression activity at glucocorticoid receptor in human whole blood assessed as repression of IL-1-induced TNF-alpha production after 4 hrs by ELISA

Progesterone receptor = target: T2, Progesterone receptor (Homo sapiens, UniProt P06401); experiment: Binding affinity to human PR
T2 sequence (P06401 whole entry): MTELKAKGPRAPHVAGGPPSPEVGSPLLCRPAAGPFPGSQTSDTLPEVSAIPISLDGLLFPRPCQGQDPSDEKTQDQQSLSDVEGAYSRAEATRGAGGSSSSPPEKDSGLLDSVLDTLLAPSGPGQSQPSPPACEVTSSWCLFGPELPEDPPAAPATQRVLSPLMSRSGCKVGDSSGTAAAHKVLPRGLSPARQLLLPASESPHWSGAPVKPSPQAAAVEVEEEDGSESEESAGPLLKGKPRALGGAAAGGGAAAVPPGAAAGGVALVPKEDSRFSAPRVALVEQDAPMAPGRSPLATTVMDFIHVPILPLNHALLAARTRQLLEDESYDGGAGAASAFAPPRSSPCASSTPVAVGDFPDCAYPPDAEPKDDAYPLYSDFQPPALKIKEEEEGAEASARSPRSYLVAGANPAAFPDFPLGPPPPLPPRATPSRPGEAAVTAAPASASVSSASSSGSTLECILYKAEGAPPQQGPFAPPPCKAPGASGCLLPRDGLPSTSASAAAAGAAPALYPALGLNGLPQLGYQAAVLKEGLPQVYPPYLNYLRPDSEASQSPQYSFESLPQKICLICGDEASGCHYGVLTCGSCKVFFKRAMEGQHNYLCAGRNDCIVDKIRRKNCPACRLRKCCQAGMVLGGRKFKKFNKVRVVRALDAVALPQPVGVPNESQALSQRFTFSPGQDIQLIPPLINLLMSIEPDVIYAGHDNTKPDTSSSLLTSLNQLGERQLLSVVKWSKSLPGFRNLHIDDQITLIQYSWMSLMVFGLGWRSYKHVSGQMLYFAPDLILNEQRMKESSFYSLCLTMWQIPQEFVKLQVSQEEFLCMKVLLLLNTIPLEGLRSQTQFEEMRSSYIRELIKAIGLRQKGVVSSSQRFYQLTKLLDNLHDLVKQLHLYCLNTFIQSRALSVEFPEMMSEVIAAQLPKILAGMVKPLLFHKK

Estrogen receptor = target: T3, Estrogen receptor (Homo sapiens, UniProt P03372); experiment: Binding affinity to human ER-alpha
T3 sequence (P03372 whole entry): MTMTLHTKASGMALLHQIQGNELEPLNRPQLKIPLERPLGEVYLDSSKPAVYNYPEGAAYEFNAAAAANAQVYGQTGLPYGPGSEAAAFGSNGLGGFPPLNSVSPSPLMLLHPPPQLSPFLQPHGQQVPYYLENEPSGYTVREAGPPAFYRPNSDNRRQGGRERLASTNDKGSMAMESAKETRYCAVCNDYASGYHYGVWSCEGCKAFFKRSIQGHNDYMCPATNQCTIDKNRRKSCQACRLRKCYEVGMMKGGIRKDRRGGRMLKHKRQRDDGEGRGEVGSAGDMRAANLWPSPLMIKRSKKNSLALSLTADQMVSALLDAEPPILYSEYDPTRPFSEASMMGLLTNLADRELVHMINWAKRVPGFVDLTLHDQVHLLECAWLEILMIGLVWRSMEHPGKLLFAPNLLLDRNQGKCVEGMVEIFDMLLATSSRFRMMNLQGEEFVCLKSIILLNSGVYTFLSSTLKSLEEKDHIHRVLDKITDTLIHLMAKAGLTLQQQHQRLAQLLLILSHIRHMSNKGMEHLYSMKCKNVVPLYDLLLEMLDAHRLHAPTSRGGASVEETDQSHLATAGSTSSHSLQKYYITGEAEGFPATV

Estrogen receptor beta = Estrogen receptor beta (Homo sapiens, UniProt Q92731); experiment: Binding affinity to human ER-beta
Androgen receptor = target: T4, Androgen receptor (Homo sapiens, UniProt P10275); experiment: Binding affinity to human AR
T4 sequence (P10275 whole entry): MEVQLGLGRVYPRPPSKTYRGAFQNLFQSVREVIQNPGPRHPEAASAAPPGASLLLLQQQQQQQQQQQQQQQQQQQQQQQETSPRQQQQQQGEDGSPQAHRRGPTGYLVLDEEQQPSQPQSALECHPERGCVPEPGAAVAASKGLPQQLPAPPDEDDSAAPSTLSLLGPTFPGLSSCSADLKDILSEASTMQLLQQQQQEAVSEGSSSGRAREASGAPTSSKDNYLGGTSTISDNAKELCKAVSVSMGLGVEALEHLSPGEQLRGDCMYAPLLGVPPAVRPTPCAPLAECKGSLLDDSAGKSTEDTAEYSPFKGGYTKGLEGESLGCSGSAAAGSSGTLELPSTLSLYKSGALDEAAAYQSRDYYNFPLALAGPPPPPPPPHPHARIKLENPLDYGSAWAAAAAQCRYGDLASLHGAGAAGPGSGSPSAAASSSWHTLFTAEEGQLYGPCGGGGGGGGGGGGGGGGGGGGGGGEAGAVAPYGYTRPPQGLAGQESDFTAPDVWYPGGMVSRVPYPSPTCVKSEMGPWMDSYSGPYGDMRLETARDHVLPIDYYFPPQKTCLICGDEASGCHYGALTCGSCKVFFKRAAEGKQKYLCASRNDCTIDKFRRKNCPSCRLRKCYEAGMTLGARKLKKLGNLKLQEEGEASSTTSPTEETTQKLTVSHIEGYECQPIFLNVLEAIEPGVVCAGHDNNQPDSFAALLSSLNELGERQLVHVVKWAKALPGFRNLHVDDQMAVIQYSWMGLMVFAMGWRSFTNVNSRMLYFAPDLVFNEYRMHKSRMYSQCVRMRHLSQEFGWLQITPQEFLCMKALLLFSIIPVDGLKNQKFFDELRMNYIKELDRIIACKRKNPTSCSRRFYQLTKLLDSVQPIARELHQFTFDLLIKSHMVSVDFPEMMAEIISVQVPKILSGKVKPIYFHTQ

Chain of Estrogen receptor beta (Q92731 whole entry): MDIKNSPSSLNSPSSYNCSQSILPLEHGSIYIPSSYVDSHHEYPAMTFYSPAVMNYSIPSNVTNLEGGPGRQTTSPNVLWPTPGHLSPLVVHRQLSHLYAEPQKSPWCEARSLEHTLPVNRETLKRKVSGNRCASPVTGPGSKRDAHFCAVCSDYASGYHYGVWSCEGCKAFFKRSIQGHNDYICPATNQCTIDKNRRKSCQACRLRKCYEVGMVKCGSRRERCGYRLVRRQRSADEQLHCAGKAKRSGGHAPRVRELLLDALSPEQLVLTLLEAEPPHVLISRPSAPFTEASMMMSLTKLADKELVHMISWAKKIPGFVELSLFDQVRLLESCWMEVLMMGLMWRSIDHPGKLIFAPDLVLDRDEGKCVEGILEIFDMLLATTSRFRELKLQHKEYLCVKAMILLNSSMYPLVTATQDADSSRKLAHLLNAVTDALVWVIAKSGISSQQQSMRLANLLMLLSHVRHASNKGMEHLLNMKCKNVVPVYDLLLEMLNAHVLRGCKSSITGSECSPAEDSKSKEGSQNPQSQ

Row | Compound | IC50 (Glucocorticoid receptor [1]) [nM] | IC50 (Glucocorticoid receptor [2]) [nM] | IC50 (Glucocorticoid receptor [3]) [nM] | IC50 (Progesterone receptor) [nM] | IC50 (Estrogen receptor) [nM] | IC50 (Estrogen receptor beta) [nM] | IC50 (Androgen receptor) [nM]
1 | CC[C@@]12C[C@@](C)(O)[C@](O)(c3ccccc3)C[C@H]1C[C@@H](O)c1cc(O)ccc12 | 79 | > 5000 | – | – | – | – | –
2 | CC[C@@]12C[C@@](C)(O)[C@](O)(c3cccnc3)C[C@H]1CCc1cc(O)ccc12 | 22 | 80 | – | – | – | – | –
3 | CC[C@@]12C[C@@](C)(O)[C@](O)(c3ccncc3)C[C@H]1CCc1cc(O)ccc12 | 9.1 | 100 | – | – | – | – | –
4 | CC[C@@]12C[C@@](C)(O)[C@](O)(c3ccccc3)C[C@H]1CC(=O)c1cc(OC(=O)c3ccccc3)ccc12 | 1.7 | 28 | – | – | – | – | –
5 | CCC[C@]1(O)C[C@H]2CCc3cc(O)ccc3[C@]2(CC)C[C@@]1(C)O | 20.1 | > 5000 | – | – | – | – | –
6 | CC[C@@]12C[C@@](C)(O)[C@@](C)(O)C[C@H]1CCc1cc(O)ccc12 | 211 | – | – | – | – | – | –
7 | CC[C@@]12C[C@@H](O)[C@](O)(c3ccccc3)C[C@H]1CCc1cc(O)ccc12 | – | > 5000 | – | – | – | – | –
8 | CC[C@@]12C[C@@](C)(O)[C@](O)(CC)C[C@H]1CCc1cc(O)ccc12 (mixture of isomers) | 47 | > 5000 | – | – | – | – | –
9 | Cc1noc(=O)c2ccc(NC(=O)C(O)(CC3(c4cc(F)ccc4Cl)CCC3)C(F)(F)F)cc12 (racemic) | 0.4 | 7.5 | 1000 | 0.2 | > 100000 | > 100000 | 40
10 | C=C[C@@]1(O)C[C@@]2(CC)c3ccc(O)cc3CC[C@@H]2C[C@@]1(O)c1ccccc1 | 5.2 | > 5000 | – | – | – | – | –
11 | CC[C@@]12C[C@@](C)(O)[C@](O)(c3ccc(C)cc3)C[C@H]1CCc1cc(O)ccc12 | 1.3 | 12 | – | – | – | – | –
12 | C=C[C@]1(O)C[C@H]2CCc3cc(O)ccc3[C@]2(CC)C[C@@]1(C)O (mixture of isomers) | 12.1 | 650 | – | – | – | – | –
13 | CC[C@@]12C[C@](C)(O)[C@](O)(c3ccccc3)C[C@H]1CCc1cc(O)ccc12 | 38 | > 5000 | – | – | – | – | –
14 | CC[C@@]12CC[C@](O)(c3ccccc3)C[C@H]1CCc1cc(O)ccc12 | – | > 5000 | – | – | – | – | –
15 | C=CC[C@]1(O)C[C@H]2CCc3cc(O)ccc3[C@]2(CC)C[C@@]1(C)O | 35.4 | > 5000 | – | – | – | – | –

Now from value to molecule:

Row | IC50 (Glucocorticoid receptor [1]) [nM] | IC50 (Glucocorticoid receptor [2]) [nM] | IC50 (Glucocorticoid receptor [3]) [nM] | IC50 (Progesterone receptor) [nM] | IC50 (Estrogen receptor) [nM] | IC50 (Estrogen receptor beta) [nM] | IC50 (Androgen receptor) [nM] | Compound
16 | 1.2 | 6 | – | – | – | – | – | CC[C@@]12C[C@](O)(CC)[C@](O)(c3ccccc3)C[C@H]1CCc1cc(O)ccc12
17 | 1.5 | 1.5 | 167 | – | – | – | – | CC[C@@]12C[C@@](C)(O)[C@](O)(c3ccccn3)C[C@H]1CCc1cc(O)ccc12
18 | 0.3 | 4 | 400 | – | – | – | – | CC[C@@]12C[C@@](C)(O)[C@](O)(c3ccccc3)C[C@H]1C=Cc1cc(O)ccc12
19 | 2.1 | 6 | – | – | – | – | – | C/C=C/[C@]1(O)C[C@H]2CCc3cc(O)ccc3[C@]2(CC)C[C@@]1(C)O (mixture of isomers)
20 | 2.5 | 5 | 72.5 | – | – | – | – | CC[C@@]12C[C@@](C)(O)[C@](O)(c3ccccc3)C[C@H]1CC(=O)c1cc(O)ccc12
21 | 0.67 | 0.6 | 43 | – | – | – | – | CC[C@@]12C[C@@](C)(O)[C@](O)(c3ccccc3)C[C@H]1C=C(C)c1cc(O)ccc12
22 | 1.5 | 1.9 | – | – | – | – | – | CC#C[C@]1(O)C[C@H]2CCc3cc(O)ccc3[C@]2(CC)C[C@@]1(C)O
23 | 0.6 | 3.5 | 109 | 321 | > 3200 | > 3200 | 300 | CC[C@@]12C[C@@](C)(O)[C@](O)(c3ccccc3)C[C@H]1CCc1cc(O)ccc12
24 | 0.79 | 1.5 | 83 | – | – | – | – | CC[C@@]12C[C@@](C)(O)[C@](O)(c3nccs3)C[C@H]1CCc1cc(O)ccc12
